Measurements reported in patent US8901118B2, “Compounds and methods for kinase modulation, and indications therefor” (Plexxikon Inc., priority 2010, dated 2014).

Target: T1, Flt-3 kinase (Homo sapiens, UniProt P36888)
T1 sequence (P36888 27-993): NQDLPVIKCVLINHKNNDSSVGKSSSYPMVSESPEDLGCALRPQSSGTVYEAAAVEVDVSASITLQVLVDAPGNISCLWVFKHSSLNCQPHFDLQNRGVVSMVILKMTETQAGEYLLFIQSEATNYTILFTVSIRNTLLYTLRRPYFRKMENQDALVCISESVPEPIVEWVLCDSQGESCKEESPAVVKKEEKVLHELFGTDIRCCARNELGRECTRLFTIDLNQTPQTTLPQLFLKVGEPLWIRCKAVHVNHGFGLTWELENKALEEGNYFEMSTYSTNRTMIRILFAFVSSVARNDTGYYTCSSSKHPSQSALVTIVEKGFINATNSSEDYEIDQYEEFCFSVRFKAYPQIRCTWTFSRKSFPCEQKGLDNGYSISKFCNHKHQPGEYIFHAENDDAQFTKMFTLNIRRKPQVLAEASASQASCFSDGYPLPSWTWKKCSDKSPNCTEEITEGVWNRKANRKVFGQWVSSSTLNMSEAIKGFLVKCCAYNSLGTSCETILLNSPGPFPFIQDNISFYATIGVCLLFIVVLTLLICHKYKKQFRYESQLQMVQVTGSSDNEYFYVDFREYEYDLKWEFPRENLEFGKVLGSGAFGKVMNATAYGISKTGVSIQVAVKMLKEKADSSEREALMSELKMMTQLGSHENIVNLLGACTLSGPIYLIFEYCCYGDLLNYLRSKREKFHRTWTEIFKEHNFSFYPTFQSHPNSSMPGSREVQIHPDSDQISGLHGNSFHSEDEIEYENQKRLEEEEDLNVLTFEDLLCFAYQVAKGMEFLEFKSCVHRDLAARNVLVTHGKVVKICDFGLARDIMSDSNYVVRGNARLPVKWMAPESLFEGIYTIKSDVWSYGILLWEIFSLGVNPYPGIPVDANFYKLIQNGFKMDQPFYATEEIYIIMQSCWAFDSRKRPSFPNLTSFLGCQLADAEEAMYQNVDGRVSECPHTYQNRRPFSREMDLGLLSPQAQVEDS
Experiment: Flt-3 kinase biochemical activity assay (AlphaScreen)
Conditions: 100 μM ATP; read-out: Biochemical Inhibition IC50 Flt3
Summary of the method: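 Recombinant kinase (1 ng/well) phosphorylated 30 nM biotin-(E4Y)10 with 100 μM ATP in Hepes pH 7.5 buffer with Mg/Mn, 5% DMSO, for 1 h at room temperature. EDTA-containing AlphaScreen streptavidin donor/PY20 acceptor beads detected phosphotyrosine; IC50 was derived from signal versus concentration.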

IC50 | SMILES
< 1000 nM | COc1ccc(Nc2ccc(Cc3c[nH]c4ncnc(C5CC5)c34)c(F)n2)cn1 [Compound P-4023, [5-(4-cyclopropyl-7H-pyrrolo[2,3-d]pyrimidin-5-ylmethyl)-6-fluoro-pyridin-2-yl]-(6-methoxy-pyridin-3-yl)-amine]
> 1000 nM | FC1(F)CCC(Nc2ncc(Cc3c[nH]c4ncc(Cl)cc34)cn2)CC1 [Compound P-3004]
